Assay results: patent US8202885B2, “Bridged six-membered ring compounds” (Actelion Pharmaceuticals Ltd., priority 2007, dated 2012)

Tested on: human Cav3.1 Cav3.2 or Cav3.3 channel
Assay: In vitro assay T channel (FLIPR calcium fluorescence)
Format: cell-based
Details: HEK293 cells expressing human Cav3.1, Cav3.2 or Cav3.3; 10 mM Ca2+-induced fluo-4 fluorescence; determined up to 10 μM; read-out: T channel antagonistic activity IC50
Outline: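 IC50 (nM) is the antagonist concentration halving the area under the fluorescence peak evoked by 10 mM Ca2+, relative to vehicle, with testing up to 10 μM. Fluo-4-loaded HEK293 cells expressing each human Cav3 subtype received compound 3 min before Ca2+ addition (TEA-based buffer, pH 7.2); signal monitored 8 min at 2 s intervals.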

IC50 [nM]	Compound
8500	CC(C)C(=O)O[C@@]1(CCN(C)CCCc2cnc3ccccc3c2)C[C@H]2CC[C@@H]1C=C2c1ccccc1 (relative stereo) [Example 49A, rac-Isobutyric acid (1R*,2R*,4R*)-2-{2-[methyl-(3-quinolin-3-yl-propyl)-amino]-ethyl}-5-phenyl-bicyclo[2.2.2]oct-5-en-2-yl ester]
> 10000	CN(CCCc1ccnc2ccccc12)CC[C@]1(O)C[C@H]2CC[C@@H]1C=C2c1ccccc1 (relative stereo) [Example 50, rac-(1R*,2R*,4R*)-2-{2-[Methyl-(3-quinolin-4-yl-propyl)-amino]-ethyl}-5-phenyl-bicyclo[2.2.2]oct-5-en-2-ol]
> 10000	CC(C)C(=O)O[C@@]1(CCN(C)CCCc2ccnc3ccccc23)C[C@H]2CC[C@@H]1C=C2c1ccccc1 (relative stereo) [Example 50A, rac-Isobutyric acid (1R*,2R*,4R*)-2-{2-[methyl-(3-quinolin-4-yl-propyl)-amino]-ethyl}-5-phenyl-bicyclo[2.2.2]oct-5-en-2-yl ester]
> 10000	COCC(C)(COC)C(=O)N(C)CCCN(C)CC[C@]1(O)C[C@H]2CC[C@@H]1C=C2c1ccccc1 (relative stereo) [Example 51, rac-N-(3-{[2-((1R*,2R*,4R*)-2-Hydroxy-5-phenyl-bicyclo[2.2.2]oct-5-en-2-yl)-ethyl]-methyl-amino}-propyl)-3-methoxy-2-methoxymethyl-2,N-dimethyl-propionamide]
4430	COCC(C)(COC)C(=O)N(C)CCCN(C)CC[C@]1(OC(=O)C(C)C)C[C@H]2CC[C@@H]1C=C2c1ccccc1 (relative stereo) [Example 51A, rac-Isobutyric acid (1R*,2R*,4R*)-2-[2-({3-[(3-methoxy-2-methoxymethyl-2-methyl-propionyl)-methyl-amino]-propyl}-methyl-amino)-ethyl]-5-phenyl-bicyclo[2.2.2]oct-5-en-2-yl ester]
4210	CCCC1=C(C)[C@H]2CC[C@@H]1C[C@]2(CCN(C)CCCN(C)C(=O)C(C)(COC)COC)OC(=O)C(C)C (relative stereo) [Example 52A, rac-Isobutyric acid (1R*,2R*,4R*)-2-[2-({3-[(3-methoxy-2-methoxymethyl-2-methyl-propionyl)-methyl-amino]-propyl}-methyl-amino)-ethyl]-6-methyl-5-propyl-bicyclo[2.2.2]oct-5-en-2-yl ester]
688	COCC(C)(COC)C(=O)N(C)CCCN(C)CC[C@]1(OC(=O)C(C)C)C[C@H]2CC[C@@H]1C(c1ccccc1)=C2C (relative stereo) [Example 53A, rac-Isobutyric acid (1R*,2R*,4R*)-2-[2-({3-[(3-methoxy-2-methoxymethyl-2-methyl-propionyl)-methyl-amino]-propyl}-methyl-amino)-ethyl]-5-methyl-6-phenyl-bicyclo[2.2.2]oct-5-en-2-yl ester]
906	COCC(C)(COC)C(=O)N(C)CCCN(C)CC[C@@]1(OC(=O)C(C)C)C[C@H]2CC[C@@H]1C(c1ccccc1)=C2C (relative stereo) [Example 53C, rac-Isobutyric acid (1R*,2S*,4R*)-2-[2-({3-[(3-methoxy-2-methoxymethyl-2-methyl-propionyl)-methyl-amino]-propyl}-methyl-amino)-ethyl]-5-methyl-6-phenyl-bicyclo[2.2.2]oct-5-en-2-yl ester]
2520	CC(=O)Nc1cccc2[nH]c(CCCN(C)CC[C@]3(OC(=O)C(C)C)C[C@H]4CC[C@@H]3C=C4c3ccccc3)nc12 (relative stereo) [Example 56A, rac-Isobutyric acid (1R*,2R*,4R*)-2-(2-{[3-(4-acetylamino-1H-benzoimidazol-2-yl)-propyl]-methyl-amino}-ethyl)-5-phenyl-bicyclo[2.2.2]oct-5-en-2-yl ester]
1980	CC(C)C(=O)O[C@@]1(CCN(C)CCCc2nc3c(Cl)cccc3[nH]2)C[C@H]2CC[C@@H]1C=C2c1ccccc1 (relative stereo) [Example 57A, rac-Isobutyric acid (1R*,2R*,4R*)-2-(2-{[3-(4-chloro-1H-benzoimidazol-2-yl)-propyl]-methyl-amino}-ethyl)-5-phenyl-bicyclo[2.2.2]oct-5-en-2-yl ester]
762	COc1ccc(Cl)c2[nH]c(CCCN(C)CC[C@]3(OC(=O)C(C)C)C[C@H]4CC[C@@H]3C=C4c3ccccc3)nc12 (relative stereo) [Example 58A, rac-Isobutyric acid (1R*,2R*,4R*)-2-(2-{[3-(7-chloro-4-methoxy-1H-benzoimidazol-2-yl)-propyl]-methyl-amino}-ethyl)-5-phenyl-bicyclo[2.2.2]oct-5-en-2-yl ester]
952	COc1cc(OC)c2nc(CCCN(C)CC[C@]3(OC(=O)C(C)C)C[C@H]4CC[C@@H]3C=C4c3ccccc3)[nH]c2c1 (relative stereo) [Example 59A, rac-Isobutyric acid (1R*,2R*,4R*)-2-(2-{[3-(4,6-dimethoxy-1H-benzoimidazol-2-yl)-propyl]-methyl-amino}-ethyl)-5-phenyl-bicyclo[2.2.2]oct-5-en-2-yl ester]
469	CC(C)C(=O)O[C@@]1(CCN(C)CCCc2nc3c(C(F)(F)F)cc(C(F)(F)F)cc3[nH]2)C[C@H]2CC[C@@H]1C=C2c1ccccc1 (relative stereo) [Example 62A, rac-Isobutyric acid (1R*,2R*,4R*)-2-(2-{[3-(4,6-bis-trifluoromethyl-1H-benzoimidazol-2-yl)-propyl]-methyl-amino}-ethyl)-5-phenyl-bicyclo[2.2.2]oct-5-en-2-yl ester]
1440	COCCOc1cccc2[nH]c(CCCN(C)CC[C@]3(OC(=O)C(C)C)C[C@H]4CC[C@@H]3C=C4c3ccccc3)nc12 (relative stereo) [Example 63A, rac-Isobutyric acid (1R*,2R*,4R*)-2-[2-({3-[4-(2-methoxy-ethoxy)-1H-benzoimidazol-2-yl]-propyl}-methyl-amino)-ethyl]-5-phenyl-bicyclo[2.2.2]oct-5-en-2-yl ester]
914	COc1cc(C)c2[nH]c(CCCN(C)CC[C@]3(OC(=O)C(C)C)C[C@H]4CC[C@@H]3C=C4c3ccccc3)nc2c1OC (relative stereo) [Example 64A, rac-Isobutyric acid (1R*,2R*,4R*)-2-(2-{[3-(4,5-dimethoxy-7-methyl-1H-benzoimidazol-2-yl)-propyl]-methyl-amino}-ethyl)-5-phenyl-bicyclo[2.2.2]oct-5-en-2-yl ester]
680	COc1ccc(C)c2nc(CCCN(C)CC[C@]3(OC(=O)C(C)C)C[C@H]4CCC[C@@H]3C=C4c3ccccc3)[nH]c12 (relative stereo) [Example 66A, rac-Isobutyric acid (1R*,5R*,6R*)-6-(2-{[3-(7-methoxy-4-methyl-1H-benzoimidazol-2-yl)-propyl]-methyl-amino}-ethyl)-8-phenyl-bicyclo[3.2.2]non-8-en-6-yl ester]
839	CC(C)C(=O)O[C@@]1(CCN(C)CCCc2nc3c(OC(F)(F)F)cccc3[nH]2)C[C@H]2CC[C@@H]1C=C2c1ccccc1 (relative stereo) [Example 68A, rac-Isobutyric acid (1R*,2R*,4R*)-2-(2-{methyl-[3-(4-trifluoromethoxy-1H-benzoimidazol-2-yl)-propyl]-amino}-ethyl)-5-phenyl-bicyclo[2.2.2]oct-5-en-2-yl ester]
727	COc1ccc(OC)c2[nH]c(CCCN(C)CC[C@]3(OC(=O)C(C)C)C[C@H]4CCC[C@@H]3C=C4c3ccccc3)nc12 (relative stereo) [Example 69A, rac-Isobutyric acid (1R*,5R*,6R*)-6-(2-{[3-(4,7-dimethoxy-1H-benzoimidazol-2-yl)-propyl]-methyl-amino}-ethyl)-8-phenyl-bicyclo[3.2.2]non-8-en-6-yl ester]
1450	Cc1nc(CCCN(C)CC[C@]2(OC(=O)C(C)C)C[C@H]3CC[C@@H]2C=C3c2ccccc2)[nH]c1-c1ccccc1 (relative stereo) [Example 71A, rac-Isobutyric acid (1R*,2R*,4R*)-2-(2-{methyl-[3-(4-methyl-5-phenyl-1H-imidazol-2-yl)-propyl]-amino}-ethyl)-5-phenyl-bicyclo[2.2.2]oct-5-en-2-yl ester]
2290	COc1ccccc1-c1cnc(CCCN(C)CC[C@]2(OC(=O)C(C)C)C[C@H]3CC[C@@H]2C=C3c2ccccc2)[nH]1 (relative stereo) [Example 72A, rac-Isobutyric acid (1R*,2R*,4R*)-2-[2-({3-[5-(2-methoxy-phenyl)-1H-imidazol-2-yl]-propyl}-methyl-amino)-ethyl]-5-phenyl-bicyclo[2.2.2]oct-5-en-2-yl ester]
1780	CC(C)C(=O)O[C@@]1(CCN(C)CCCc2nc3ccccc3[nH]2)C[C@@H]2C=C[C@H]1CC2 (relative stereo) [Example 75A, rac-Isobutyric acid (1R*,2R*,4R*)-2-(2-{[3-(1H-benzoimidazol-2-yl)-propyl]-methyl-amino}-ethyl)-bicyclo[2.2.2]oct-5-en-2-yl ester]
> 10000	CO[C@]1(c2ccccc2)C[C@H]2CC[C@@H]1C[C@@]2(O)CCN(C)CCCc1nc2ccccc2[nH]1 (relative stereo) [Example 76, rac-(1R*,2R*,4R*,5R*)-2-(2-{[3-(1H-Benzoimidazol-2-yl)-propyl]-methyl-amino}-ethyl)-5-methoxy-5-phenyl-bicyclo[2.2.2]octan-2-ol]
2120	CO[C@]1(c2ccccc2)C[C@H]2CC[C@@H]1C[C@]2(CCN(C)CCCc1nc2ccccc2[nH]1)OC(=O)C(C)C (relative stereo) [Example 76A, rac-Isobutyric acid (1R*,2R*,4R*,5R*)-2-(2-{[3-(1H-benzoimidazol-2-yl)-propyl]-methyl-amino}-ethyl)-5-methoxy-5-phenyl-bicyclo[2.2.2]oct-2-yl ester]
